For assay [1], the target named is Beta Secretase enzyme (BACE) (Homo sapiens, UniProt P56817). The experiment in a line: In vitro enzymatic BACE FRET (fluorescence resonance energy transfer) assay.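 Note: fluorescence read after 1 h with 50 nM quenched peptide substrate spanning the BACE cleavage site, in pH 4.2 acetate buffer containing 10% DMSO and nonionic detergent.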 The format is biochemical.
The subject of assay [2] is Aβ40 in conditioned medium of cells stably expressing Amyloid Precursor Protein (APP). Kind of assay: In vitro BACE cell-based assay (Aβ40 in conditioned medium, sandwich ELISA).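 Note: compounds added as a dilution series, secreted peptide quantified by europium time-resolved fluorescence readout, potency fitted from percent of control versus compound concentration.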 Background: ELISA stands for enzyme-linked immunosorbent assay.
[3] abbreviates: BACE enzyme assay, read-out: BACE1 FRET assay (IC50).
Setting [4] is: Table 2, read-out: BACE1 FRET assay.
The mark [5] stands for this setting: Homo sapiens, HEK293, Table 2, HEK cells, read-out: HEK cell assay.
[6] abbreviates: BACE enzyme assay, IC50's in uM, read-out: BACE1 FRET assay.
[7] abbreviates: Homo sapiens, HEK293, cell-based assay, HEK cells, IC50's in uM, read-out: HEK cell assay.
Setting [8] is: Homo sapiens, HEK293, HEK cells, cell-based assay, read-out: HEK cell assay (IC50).
Where [9] appears, read: BACE enzyme FRET assay, read-out: BACE1 FRET assay (IC50).
[10] abbreviates: Homo sapiens, HEK293, HEK cell-based assay, IC50's in uM, read-out: HEK cell assay.

Like-named read-outs stand apart in the source and are kept apart here.

Sequence of Beta Secretase enzyme (BACE) (P56817 46-501): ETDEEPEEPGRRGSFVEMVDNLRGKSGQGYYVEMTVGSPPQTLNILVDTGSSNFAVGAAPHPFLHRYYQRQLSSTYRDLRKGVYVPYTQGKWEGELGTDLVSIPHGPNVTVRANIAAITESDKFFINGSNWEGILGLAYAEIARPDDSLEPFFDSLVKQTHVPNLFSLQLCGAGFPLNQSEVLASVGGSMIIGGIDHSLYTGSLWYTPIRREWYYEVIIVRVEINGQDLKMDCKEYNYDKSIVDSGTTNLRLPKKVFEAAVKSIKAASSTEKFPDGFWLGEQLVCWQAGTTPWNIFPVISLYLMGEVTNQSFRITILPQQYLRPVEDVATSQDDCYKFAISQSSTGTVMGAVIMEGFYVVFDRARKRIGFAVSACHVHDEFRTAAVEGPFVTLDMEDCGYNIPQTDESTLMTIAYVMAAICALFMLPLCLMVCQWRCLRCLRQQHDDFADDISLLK

Regarding “1-cyclobutyl-N-((1S,2R)-3-(((4′S)-6′-(2,2-dimethylpropyl)-3′,4′-dihydrospiro[cyclobutane-1,2′-pyrano[2,3-b]pyridin]-4′-yl)amino)-1-((4-fluorophenyl)methyl)-2-hydroxypropyl)-5-oxo-3-pyrrolidinecarboxamide [compound 67]”, the IC50 in assay [1] (setting [3]) worked out at 0.471 µM; in assay [2] (HEK cells, cell-based assay, read-out: HEK cell assay (IC50)) it was 0.0625 µM.
Turning to `C[C@H](F)C(=O)N[C@@H](Cc1ccc2c(c1)OCO2)[C@H](O)CN[C@H]1CC2(CCC2)Oc2ncc(CC(C)(C)C)cc21` [Example 483], the IC50 in assay [1] (setting [4]) stood at 0.018 µM; in assay [2] (setting [5]) it was 0.049 µM.
Take `C[C@@H](F)C(=O)N[C@@H](Cc1ccc2c(c1)OCO2)[C@H](O)CN[C@H]1CC2(CCC2)Oc2ncc(CC(C)(C)C)cc21` [Example 484, (2R)-N-((1S,2R)-1-(1,3-benzodioxol-5-ylmethyl)-3-(((4′S)-6′-(2,2-dimethylpropyl)-3′,4′-dihydrospiro[cyclobutane-1,2′-pyrano[2,3-b]pyridin]-4′-yl)amino)-2-hydroxypropyl)-2-fluoropropanamide]: the IC50 in assay [1] (setting [4]) stood at 0.029 µM; in assay [2] (setting [5]), 0.056 µM.
In the case of `C#Cc1ccc(C[C@H](NC(=O)COC)[C@H](O)CN[C@H]2CC3(CCC3)Oc3ncc(CC(C)C)cc32)cc1` [Example 855], the IC50 in assay [1] (setting [6]) came out at 0.062 µM; in assay [2] (setting [7]), 0.174 µM.
Take `C#Cc1ccc(C[C@H](NC(=O)COC)[C@H](O)CN[C@H]2CC3(CCC3)Oc3ncc(CC(C)(C)C)cc32)cc1` [Example 885]: in assay [2] (setting [7]), the IC50 amounted to 0.099 µM.
`CCO[C@@H](C)C(=O)N[C@@H](Cc1cccc(-c2nccs2)c1)[C@H](O)CN[C@H]1CC2(CCC2)Oc2ncc(CC(C)(C)C)cc21` [Example 893]: the IC50 in assay [2] (setting [7]) is 0.012 µM.
The same measure, in the same setting: as for `CCO[C@H](C)C(=O)N[C@@H](Cc1cccc(-c2nccs2)c1)[C@H](O)CN[C@H]1CC2(CCC2)Oc2ncc(CC(C)(C)C)cc21` [Example 894], the figure is 0.018 µM.
`COCC(=O)N[C@@H](Cc1ccc2c(c1)OCO2)[C@H](O)CN[C@H]1CC2(CC(F)(F)C2)Oc2ncc(CC(C)(C)C)cc21` [compound 52]: the results for the IC50 in assay [1] (setting [3]) and in assay [2] (setting [8]) were 0.042 µM and 0.103 µM, respectively.
In the same order, the values of `COCC(=O)N[C@@H](Cc1ccc(F)cc1)[C@H](O)CNC1CC2(CC(F)(F)C2)Oc2ncc(CC(C)(C)C)cc21` (stereo partly shown) [compound 53] are 0.011 µM and 0.065 µM.
Take `COCC(=O)N[C@@H](Cc1ccccc1)[C@H](O)CNC1CC2(CC(F)(F)C2)Oc2ncc(CC(C)(C)C)cc21` (stereo partly shown) [compound 54]: the IC50 in assay [1] (setting [3]) was 0.003 µM; in assay [2] (setting [8]) it was 0.066 µM.
`CC(=O)N[C@@H](Cc1ccc2c(c1)OCO2)[C@H](O)CN[C@H]1CC2(CC(F)(F)C2)Oc2ncc(CC(C)(C)C)cc21` [compound 55]: the IC50 came out at 0.0236 µM in assay [1] (setting [3]) and 0.083 µM in assay [2] (setting [8]).
On to `CO[C@H](C)C(=O)N[C@@H](Cc1cccc(C#N)c1)[C@H](O)CN[C@H]1CC2(CCC2)Oc2ncc(CC(C)(C)C)cc21` [compound 56], for which the results for the IC50 in assay [1] (setting [3]) and in assay [2] (setting [8]) were 0.00263 µM and 0.00305 µM, respectively.
In the case of `COCC(=O)N[C@@H](Cc1cccc(C#N)c1)[C@H](O)CN[C@H]1CC2(CCC2)Oc2ncc(CC(C)(C)F)cc21` [compound 57], the values for the IC50 in assay [1] (setting [3]) and in assay [2] (setting [8]) were 0.00294 µM and 0.0053 µM, respectively.
As to `CO[C@H](C)C(=O)N[C@@H](Cc1cccc(C#N)c1)[C@H](O)CN[C@H]1CC2(CCC2)Oc2ncc(CC(C)(C)F)cc21` [compound 58], the IC50 came out at 0.00575 µM in assay [1] (setting [3]) and 0.00678 µM in assay [2] (setting [8]).
In the same order, the values of `COC(C(=O)N[C@@H](Cc1ccc(F)cc1)[C@H](O)CN[C@H]1CC2(CCC2)Oc2ncc(CC(C)(C)C)cc21)C(F)(F)F` (stereo partly shown) [compound 59] are 0.364 µM and 0.171 µM.
For `CC(C)(C)Cc1cnc2c(c1)[C@@H](NC[C@@H](O)[C@H](Cc1cccc(C#N)c1)NC(=O)[C@H](O)C(F)(F)F)CC1(CCC1)O2` [compound 61], the IC50 in assay [1] (setting [3]) is 0.00323 µM; in assay [2] (setting [8]), 0.00965 µM.
For `CC(C)(C)Cc1cnc2c(c1)[C@@H](NC[C@@H](O)[C@H](Cc1cccc(C#N)c1)NC(=O)[C@@H](O)C(F)(F)F)CC1(CCC1)O2` [compound 62], the IC50 stood at 0.00401 µM in assay [1] (setting [3]) and 0.00983 µM in assay [2] (setting [8]).
In the same order, the values of `CO[C@@H](C(=O)N[C@@H](Cc1ccc(F)cc1)[C@H](O)CN[C@H]1CC2(CCC2)Oc2ncc(CC(C)(C)C)cc21)C(F)(F)F` [compound 63] are 0.258 µM and 0.128 µM.
The corresponding values for `CO[C@H](C(=O)N[C@@H](Cc1ccc(F)cc1)[C@H](O)CN[C@H]1CC2(CCC2)Oc2ncc(CC(C)(C)C)cc21)C(F)(F)F` [compound 64] are 0.617 µM and 0.0797 µM.
Consider `COC(C(=O)N[C@@H](Cc1cccc(F)c1)[C@H](O)CN[C@H]1CC2(CCC2)Oc2ncc(CC(C)(C)C)cc21)C(F)(F)F` (stereo partly shown) [compound 65], for which the IC50 in assay [1] (setting [3]) amounted to 0.0343 µM; in assay [2] (setting [8]), 0.127 µM.
`CC(C)(C)Cc1cnc2c(c1)[C@@H](NC[C@@H](O)[C@H](Cc1cccc(F)c1)NC(=O)C1CN(C3CCC3)C(=O)C1(C)C)CC1(CCC1)O2` (stereo partly shown) [compound 66]: the IC50 in assay [1] (setting [3]) amounted to 0.0436 µM; in assay [2] (setting [8]), 1.11 µM.
The corresponding values for `CC(C)(C)Cc1cnc2c(c1)[C@@H](NC[C@@H](O)[C@H](Cc1ccc(F)cc1)NC(=O)[C@H](O)C(F)(F)F)CC1(CCC1)O2` [compound 68] are 0.0486 µM and 0.0553 µM.
As to `CC(C)(C)Cc1cnc2c(c1)[C@@H](NC[C@@H](O)[C@H](Cc1ccc(F)cc1)NC(=O)[C@@H](O)C(F)(F)F)CC1(CCC1)O2` [compound 69], the IC50 in assay [1] (setting [3]) worked out at 0.0336 µM; in assay [2] (setting [8]) it was 0.0784 µM.
The corresponding values for `CO[C@H](C)C(=O)N[C@@H](Cc1ccc(Cl)c(F)c1)[C@H](O)CN[C@H]1CC2(CCC2)Oc2ncc(CC(C)(C)F)cc21` [compound 70] are 0.0558 µM and 0.138 µM.
Consider `CO[C@H](C)C(=O)N[C@@H](Cc1cccc(F)c1F)[C@H](O)CN[C@H]1CC2(CCC2)Oc2ncc(CC(C)(C)F)cc21` [compound 71], for which the IC50 was 0.0339 µM in assay [1] (setting [3]) and 0.0927 µM in assay [2] (setting [8]).
For the compound `CO[C@H](C)C(=O)N[C@@H](Cc1ccc(F)c(Cl)c1)[C@H](O)CN[C@H]1CC2(CCC2)Oc2ncc(CC(C)(C)F)cc21` [compound 72], the IC50 in assay [1] (setting [3]) was found to be 0.0291 µM; in assay [2] (setting [8]) it was 0.0605 µM.
In the same order, the values of `COCC(=O)N[C@@H](Cc1cccc(F)c1)[C@H](O)CN[C@H]1CC2(CCC2)Oc2ncc(CC(C)(C)C(F)(F)F)cc21` [compound 73] are 0.016 µM and 0.0531 µM.
Consider `CO[C@H](C)C(=O)N[C@@H](Cc1cccc(F)c1)[C@H](O)CN[C@H]1CC2(CCC2)Oc2ncc(CC(C)(C)C(F)(F)F)cc21` [compound 74], for which the IC50 in assay [1] (setting [3]) turned out to be 0.0305 µM; in assay [2] (setting [8]), 0.0949 µM.
The corresponding values for `CO[C@H](C)C(=O)N[C@@H](Cc1ccc(F)cc1)[C@H](O)CN[C@H]1CC2(CCC2)Oc2ncc(CC(C)(C)C(F)(F)F)cc21` [compound 75] are 0.00668 µM and 0.0199 µM.
On to `COC(C)C(=O)NC(Cc1ccc2c(c1)OCO2)C(O)CNC1CC2(CC(O)C2)Oc2cnccc21` [compound 245, (2R)—N-((1S,2R)-1-(1,3-benzodioxol-5-ylmethyl)-2-hydroxy-3-(((1r,3R,4′S)-3-hydroxy-3′,4′-dihydrospiro[cyclobutane-1,2′-pyrano[2,3-c]pyridin]-4′-yl)amino)propyl)-2-(methyloxy)propanamide], for which the IC50 in assay [1] (setting [9]) came out at 40 µM.
The same measure, in the same setting: as for `COCC(=O)N[C@@H](Cc1ccc(F)cc1)[C@H](O)CN[C@H]1C[C@]2(C[C@@H](C#N)C2)Oc2ncc(CC(C)(C)C)cc21` [compound 261, N-((1S,2R)-3-(((1r,3S,4′S)-3-cyano-6′-(2,2-dimethylpropyl)-3′,4′-dihydrospiro[cyclobutane-1,2′-pyrano[2,3-b]pyridin]-4′-yl)amino)-1-((4-fluorophenyl)methyl)-2-hydroxypropyl)-2-(methyloxy)acetamide], the figure is 0.0389 µM; as for `CC(=O)NC(Cc1ccc(F)cc1)C(O)CNC1CC2(CC(C#N)C2)Oc2ncc(CC(C)(C)C)cc21` [compound 262, N-((1S,2R)-3-(((1r,3S,4′S)-3-cyano-6′-(2,2-dimethylpropyl)-3′,4′-dihydrospiro[cyclobutane-1,2′-pyrano[2,3-b]pyridin]-4′-yl)amino)-1-((4-fluorophenyl)methyl)-2-hydroxypropyl)acetamide], 0.0465 µM.
Consider `CC(=O)N[C@@H](Cc1cccc(F)c1)[C@H](O)CN[C@H]1CC2(CCC2)Oc2ncc([C@@H](F)[C@H](C)C(F)(F)F)cc21` [compound 323], for which the IC50 in assay [1] (Table 1, read-out: BACE1 FRET assay) was 0.365 µM.
As to `COCC(=O)N[C@@H](Cc1cccc(-c2nc(C)cs2)c1)[C@H](O)CN[C@H]1CC2(CCC2)Oc2ncc(CC(C)(C)C)cc21` [compound 758], the IC50 in assay [2] (setting [10]) came to 0.014 µM.
Regarding `COCC(=O)N[C@@H](Cc1cccc(-c2ccccn2)c1)[C@H](O)CN[C@H]1CC2(CCC2)Oc2ncc(CC(C)(C)C)cc21` [compound 841, N-((1S,2R)-3-(((4′S)-6′-(2,2-dimethylpropyl)-3′,4′-dihydrospiro[cyclobutane-1,2′-pyrano[2,3-b]pyridin]-4′-yl)amino)-2-hydroxy-1-(3-(2-pyridinyl)benzyl)propyl)-2-methoxyacetamide], in assay [2] (setting [10]), the IC50 was 0.018 µM.
In the case of `COCC(=O)N[C@@H](Cc1cccc(-c2nccs2)c1F)[C@H](O)CN[C@H]1CC2(CCC2)Oc2ncc(CC(C)(C)C)cc21` [compound 908], in assay [2] (setting [7]), the IC50 came to 0.1 µM.
As for `C#Cc1cccc(C[C@H](NC(=O)COC)[C@H](O)CN[C@H]2CC3(CCC3)Oc3ncc(CC(C)(C)C)cc32)c1F` [compound 911], the IC50 in assay [2] (setting [7]) was found to be 0.144 µM.
`COCC(=O)N[C@@H](Cc1cc(Br)cc(OC)c1)[C@H](O)CN[C@H]1CC2(CCC2)Oc2ncc(CC(C)(C)C)cc21` [compound 917]: in assay [1] (setting [6]), the IC50 turned out to be 0.014 µM.

For the origin of these results see patent US8163909B2, “Substituted hydroxyethyl amine compounds as beta-secretase modulators and methods of use” (Amgen Inc., priority 2007, dated 2012).
